# Data as given in US20020123456A1, “Methods of identifying agents affecting atrophy and hypertrophy” (priority 2001, published 2002).
# Entries after “also recorded” stand apart in the source; their conditions may differ.
# What was measured:
# calcineurin/NFAT-C1 = experiment: NFAT-C1 phosphorylation and translocation in C2C12 differentiated myotubes (immunoblot); format: cell-based; conditions: for NFAT-C1 phosphorylation state and nuclear translocation: IGF-1 10 ng ml-1 or Ca-I 1.0 μM, 15 min
# Excerpt: (§1) As a first step towards examining the roles of the calcineurin/NFAT and PI(3)K/Akt pathways during IGF-induced myotube hypertrophy, we added IGF-1 to differentiated myotubes and determined whether these pathways were activated. Calcineurin is a protein phosphatase that is activated by increases in intracellular calcium levels, which in turn dephosphorylates the NFAT transcription factors; this dephosphorylation results in the translocation of NFATs to the nucleus and subsequent gene transcription. NFAT dephosphorylation and nuclear translocation are therefore markers of calcineurin activation (FIG. 7, right). For markers of activation of the PI(3)K/Akt pathway, the phosphorylation of Akt itself or of downstream targets such as p70S6 kinase (p70S6K), PHAS-1/4E-BP1 or GSK3 were used (FIG. 7).
# (§2) Protein analysis of total cell lysates was conducted as described8. The antibodies used were anti-phospho-Erk1/2 (Thr 202/Tyr 204; NEB); anti-phospho-Akt (Ser 473; NEB); anti-phospho- GSK3 (Ser 9/21; NEB); anti-phospho-p70S6K (Thr 389; NEB); anti-phospho-PHAS-1/4E-BP1 (Thr 65; NEB); anti-Erk1/2 (UBI), anti-Akt (NEB), anti-p70S6K (C-18; Santa Cruz), anti-PHAS-1/4EBP1 (Zymed) and anti-NFAT-C1 (7A6; Santa Cruz).
# (§3) Immunoprecipitations and immunoblotting were performed as described. Proteins were detected with the chemiluminescence detection system Renaissance; NEN). To measure the enzymatic activity of p70S6K an immunocomplex kinase assay was performed as described (Azpiazu, I., Saltiel, A. R., DePaoli-Roach, A. A. & Lawrence, J. C. J. Biol. Chem. 271, 5033-5039 (1996)).
# PI(3)K/Akt/mTOR pathway = experiment: PI(3)K/Akt/mTOR and ERK signalling in C2C12 differentiated myotubes (immunoblot, kinase assay); format: cell-based; conditions: for phosphorylation of downstream targets of the PI(3)K/Akt/mTOR pathway (Akt, p70S6K, GSK3, PHAS-1/4E-BP1): IGF-1 10 ng ml-1 or Ca-I 1.0 μM, 15 min
# Excerpt: as §1, §2, §3
# C2C12 myotubes = experiment: C2C12 myotube hypertrophy (myotube diameter); format: cell-based; conditions: LY294002 10 μM; for myotube size / hypertrophy, agent alone: D2 myotubes treated at day 2 after fusion, analysed day 4, IGF-1 10 ng ml-1, CsA 5 μM, Ca-I 1 μM; for IGF-1-induced myotube hypertrophy: D2 myotubes, IGF-1 10 ng ml-1 plus CsA 5 μM, rapamycin 2 ng ml-1, PD98059 or Ara-C 10 μM
# Method: FIG. 9. […] Myotubes were treated at day 2 after fusion with the PI(3)K inhibitor LY294002 (LY; 10 μM), the mTOR inhibitor rapamycin (RAP, 2 ng ml-1), IGF-1 (10 ng ml-1) and with a combination of IGF-1 and each inhibitor, and analyzed for morphological effects at day 4. […] C2C12 myotubes were treated at day 2 after induction of differentiation with IGF-1 (10 ng ml-1) or a combination of Ara-C (10 μM) and IGF-1 (10 ng ml-1), and analysed the next day. Untreated myotubes are shown (CON). […] Quantification of myotube diameters is shown. The average number of nuclei per myotube is presented for each condition in the bottom row.
# To distinguish between effects on myoblast differentiation and those on the trophic state of existing myofibres, we exploited the C2C12 myoblast differentiation system. C2C12 myoblasts proliferate until they reach confluence; then, in serum-poor medium, the myoblasts fuse into multi-nucleated myotubes. Differentiated myotubes are predominant by 2 days after fusion (D2 myotubes) and survive for another 3 days. […] IGF-1-induced myotube hypertrophy, as measured by an increase in diameter and an increase in total protein, is normally accompanied by an increase in nuclei within the myofibres.
# To obtain more direct evidence, we next used the pharmacological inhibitors of the calcineurin and PI(3)K/Akt pathways in assays of IGF-1-induced myotube hypertrophy. Further, we introduced gene-expression vectors into the myotubes that induced the expression of either activators or dominant-negative blockers of these pathways.
# C2C12 myoblasts were cultured and transfected as described (Glass, D. J. et al. Cold Spring Harb. Symp. Quant. Biol. 57, 53-62 (1992)). Flow cytometry and cell sorting were performed on a Cytomation MoFlo (Fort Collins, Colorado) high-speed cell sorter (FACS) (Rommel, C. et al. Science 286, 1738-1741 (1999)). Myoblasts were fused into myotubes at confluence, by shifting the medium to DMEM+2% horse serum. Myotube diameter was quantified as follows: 10 fields were chosen randomly, and approximately 10 myotubes were measured per field. The average diameter per myotube was calculated as the mean of ten measurements taken along the length of the myotube. For the constitutively active Akt, kinaseinactive Akt, wild-type Akt, wild-type SHIP2, dominant-negative SHIP2, constitutively active p70S6K and dominant-negative GSK3β constructs, transfected myotubes were determined by the co-expression of enhanced green fluorescent protein (EGFP; see below for construct details); thus, only transfected myotubes were assessed for hypertrophy. For the tetracycline-inducible calcineurin, myotubes expressing calcineurin were identified by EGFP expression, and comparisons were made between EGFP-positive and EGFP-negative myotubes. […]
# rat plantaris muscle = experiment: Compensatory hypertrophy of the plantaris after surgical overload; format: in vivo
# Method: Female Sprague-Dawley rats (250-275 g) were anaesthetized with ketamine/xylazine (50/10 mg kg-1, intraperitoneally); with the use of aseptic surgical techniques the soleus, medial gastrocnemius and lateral gastrocnemius muscles were removed bilaterally, producing a functional overload on the plantaris muscles. In some instances, plasmid DNA (100 μl) was injected into the muscle immediately after the procedure. The hindlimbs of adult female SD rats (225-250 g) were unloaded by suspending their tails with a tail-traction bandage as described29. At the appropriate times, rats were killed and hindlimb muscles were removed, weighed and frozen in isopentane cooled with liquid nitrogen. Weight-matched surgically untreated rats served as controls.
# Transfection in vivo. Constructs used encoded the following: (1) myristoylated, c.a. […]
# Muscle fibre size was obtained from digitally imaged serial cross-sections of cryostat-sectioned muscle. Individual muscle fibres were outlined and cross-sectional area was determined with a computerassisted image analysis system (MetaMorph™; Universal Imaging Corporation). All data are expressed as means ±s.e.m. […]
# [1] = Rapamycin given to control (surgically untreated) adult animals; format: in vivo, rat; conditions: rapamycin for 14 days, data not shown
# Excerpt: The above findings indicate that the Akt pathway and its downstream targets are activated during muscle hypertrophy in vivo. To begin to determine the role of these activations, we used treatment in vivo with rapamycin, a quite specific inhibitor of one important Akt target, mTOR. Rapamycin, a selective blocker of mTOR, blocked hypertrophy in all models without causing atrophy in control muscles Rapamycin binds to its intracellular receptor, forming a complex that then binds to and inhibits mTOR activity (Schmeizie, T. & Hall, M. N. Cell 103, 253-262 (2000).). […] Treatment with rapamycin produced no non-specific effects; that is, there was no effect on body weight or the baseline weight of non-overloaded hindlimb muscles in these animals. Further, rapamycin given to control (surgically untreated) adult animals for 14 days had no effect on body weight or muscle weight (data not shown). In addition to the above results from rats, similar results were obtained when this hypertrophy model was performed in mice (data not shown).
Compound,NFAT-C1 phosphorylation state and nuclear translocation (calcineurin/NFAT-C1),"phosphorylation of downstream targets of the PI(3)K/Akt/mTOR pathway (Akt, p70S6K, GSK3, PHAS-1/4E-BP1) (PI(3)K/Akt/mTOR pathway)","myotube size / hypertrophy, agent alone (C2C12 myotubes)",IGF-1-induced myotube hypertrophy (C2C12 myotubes),other results
"CNc1ccc2oc(C[C@H]3O[C@@]4(CC[C@H]3C)O[C@H]([C@H](C)C(=O)c3ccc[nH]3)[C@H](C)C[C@H]4C)nc2c1C(=O)O [calcium ionophore, A23187]",dephosphorylation-induced downshift in NFAT,none could be induced,thinner myotubes,–,"phosphorylation of downstream targets of the PI(3)K/Akt/mTOR pathway (Akt, p70S6K, GSK3, PHAS-1/4E-BP1) (PI(3)K/Akt/mTOR pathway; listed as Ca-I): had no effect on these kinases"
cytosine-β-D-arabinofuranoside [Ara-C],–,–,–,myotube diameter and total protein still increase; also recorded: does not inhibit IGF-1-mediated hypertrophy,–
IGF-1,hyperphosphorylation of NFAT,induced the phosphorylation,resulting in hypertrophy,–,"calcium-ionophore-induced dephosphorylation and translocation of NFAT-C1 (calcineurin/NFAT-C1; Ca-I 1.0 μM, CsA 5 μM before stimulation or IGF-1 10 ng ml-1 simultaneously): blunted"
CO[C@H]1C[C@@H]2CC[C@@H](C)[C@@](O)(O2)C(=O)C(=O)N2CCCC[C@H]2C(=O)O[C@H]([C@H](C)C[C@@H]2CC[C@@H](O)[C@H](OC)C2)CC(=O)[C@H](C)/C=C(\C)[C@@H](O)[C@@H](OC)C(=O)[C@H](C)C[C@H](C)/C=C/C=C/C=C/1C [rapamycin],–,–,–,–,"blockage of hypertrophy (rat plantaris muscle; adaptive hypertrophy in adult animals, rapamycin): 95%; body weight or baseline weight of non-overloaded hindlimb muscles (rat plantaris muscle; overloaded rats treated with rapamycin 1.5 mg kg-1 i.p. daily): no effect; body weight or muscle weight [1]: had no effect"
COc1cccc(-c2cc(=O)c3ccccc3o2)c1N [PD98059],–,–,–,did not block phenotypic hypertrophy,"IGF-1-induced Akt / PI(3)K/Akt pathway activation (PI(3)K/Akt/mTOR pathway; IGF-1 10 ng ml-1 15 min, CsA 5 μM, LY294002 10 μM, rapamycin 2 ng ml-1, PD98059): without affecting steps in the PI(3)K/Akt/mTOR pathway; IGF-1-induced ERK activation (PI(3)K/Akt/mTOR pathway; IGF-1 10 ng ml-1 15 min, LY294002 10 μM, PD98059 10 μM): did indeed block ERK activation"
